Format in all cases: cell-based, Acinetobacter baumannii
Assay [1] deals with A. baumannii HUMC4. The experiment in a line: microbe, parasite or virus in culture. The note with it: for MIC: Acinetobacter baumannii.
For assay [2], the system named is A. baumannii HUMC1. The experiment in a line: microbe, parasite or virus in culture. The conditions noted are these: for MIC: Acinetobacter baumannii.
Assay [3] concerns A. baumannii HUMC5. Briefly: microbe, parasite or virus in culture. The note with it: for MIC: Acinetobacter baumannii.
Assay [4] deals with A. baumannii ATCC 17978. Briefly: Antibacterial minimum inhibitory concentrations for clinical isolates. The note with it: strain ATCC 17978; for MIC: Acinetobacter baumannii, ATCC17978.
Assay [5] relates to A. baumannii HUMC6. Briefly: microbe, parasite or virus in culture. The note with it: for MIC: Acinetobacter baumannii.
For assay [6], the system named is A. baumannii HUMC12. The experiment in a line: microbe, parasite or virus in culture. The note with it: for MIC: Acinetobacter baumannii.
Setting [7] is: strain HUMC4, read-out: Antibacterial Minimum Inhibitory Concentrations.
The mark [8] stands for this setting: HUMC1, read-out: Antibacterial Minimum Inhibitory Concentrations.
The mark [9] stands for this setting: strain HUMC5, read-out: Antibacterial Minimum Inhibitory Concentrations.
Setting [10] is: strain HUMC6, read-out: Antibacterial Minimum Inhibitory Concentrations.
Where [11] appears, read: strain HUMC12, read-out: Antibacterial Minimum Inhibitory Concentrations.
The mark [12] stands for this setting: strain HUMC1, read-out: Antibacterial Minimum Inhibitory Concentrations.

In brackets after ≈: the same amount, converted by molar mass. Like-named read-outs stand apart in the source and are kept apart here.

Regarding `NCC[C@H](O)C(=O)N[C@@H]1C[C@H](N)[C@@H](O[C@H]2O[C@H](CN)[C@@H](O)[C@H](O)[C@H]2O)[C@H](O)[C@H]1O[C@H]1O[C@H](CO)[C@@H](O)[C@H](N)[C@H]1O` [Amikacin], the MIC was over 128 mg/L in assay [1] (setting [7]); over 128 mg/L in assay [2] (setting [8]); over 128 mg/L in assay [3] (setting [9]); 8 mg/L (≈ 13.7 µM) in assay [4]; over 128 mg/L in assay [5] (setting [10]); over 128 mg/L in assay [6] (setting [11]).

Take `C[C@@H](O)[C@H]1C(=O)N2C(C(=O)O)=C(S[C@@H]3CN[C@H](CNS(N)(=O)=O)C3)[C@H](C)[C@H]12` [Doripenem]: the MIC is 4 mg/L (≈ 9.51 µM) in assay [1] (setting [7]); 16 mg/L (≈ 38 µM) in assay [2] (setting [12]); 8 mg/L (≈ 19 µM) in assay [3] (setting [9]); 0.5 mg/L (≈ 1.19 µM) in assay [4]; 4 mg/L (≈ 9.51 µM) in assay [5] (setting [10]); 8 mg/L (≈ 19 µM) in assay [6] (setting [11]).

Consider `C[C@@H](O)[C@H]1C(=O)N2C(C(=O)O)=C(S[C@@H]3CN[C@H](C(=O)Nc4cccc(C(=O)O)c4)C3)[C@H](C)[C@H]12` [Ertapenem], for which the MIC is 32 mg/L (≈ 67.3 µM) in assay [1] (setting [7]); 128 mg/L (≈ 269 µM) in assay [2] (setting [12]); 32 mg/L (≈ 67.3 µM) in assay [3] (setting [9]); 4 mg/L (≈ 8.41 µM) in assay [4]; 32 mg/L (≈ 67.3 µM) in assay [5] (setting [10]); 16 mg/L (≈ 33.6 µM) in assay [6] (setting [11]).

Take `C[C@@H](O)[C@H]1C(=O)N2C(C(=O)O)=C(SCCN=CN)C[C@H]12` [Imipenem]: the MIC in assay [1] (setting [7]) turned out to be 4 mg/L (≈ 13.4 µM); in assay [2] (setting [12]), 16 mg/L (≈ 53.4 µM); in assay [3] (setting [9]) it was 4 mg/L (≈ 13.4 µM); in assay [4] it was 0.25 mg/L (≈ 0.835 µM); in assay [5] (setting [10]), 4 mg/L (≈ 13.4 µM); in assay [6] (setting [11]), 2 mg/L (≈ 6.68 µM).

Regarding `C[C@@H](O)[C@H]1C(=O)N2C(C(=O)O)=C(S[C@@H]3CN[C@H](C(=O)N(C)C)C3)[C@H](C)[C@H]12` [Meropenem], the MIC in assay [1] (setting [7]) is 8 mg/L (≈ 20.9 µM); in assay [2] (setting [8]) it was 32 mg/L (≈ 83.4 µM); in assay [3] (setting [9]), 8 mg/L (≈ 20.9 µM); in assay [4], 0.25 mg/L (≈ 0.652 µM); in assay [5] (setting [10]) it was 8 mg/L (≈ 20.9 µM); in assay [6] (setting [11]), 4 mg/L (≈ 10.4 µM).

Take `CN(C)c1cc(NC(=O)CNC(C)(C)C)c(O)c2c1C[C@H]1C[C@H]3[C@H](N(C)C)C(O)=C(C(N)=O)C(=O)[C@@]3(O)C(O)=C1C2=O` [Tigecycline]: the MIC was 4 mg/L (≈ 6.83 µM) in assay [1] (HUMC4, read-out: Antibacterial Minimum Inhibitory Concentrations); 4 mg/L (≈ 6.83 µM) in assay [2] (setting [8]); 4 mg/L (≈ 6.83 µM) in assay [3] (HUMC5, read-out: Antibacterial Minimum Inhibitory Concentrations); 0.25 mg/L (≈ 0.427 µM) in assay [4]; 4 mg/L (≈ 6.83 µM) in assay [5] (HUMC6, read-out: Antibacterial Minimum Inhibitory Concentrations); 4 mg/L (≈ 6.83 µM) in assay [6] (HUMC12, read-out: Antibacterial Minimum Inhibitory Concentrations).

As for Ampicillin/sulbactam, the “Antibacterial Minimum Inhibitory Concentrations” value in assay [1] (strain HUMC4) is on record as 32/16; in assay [2] (strain HUMC1), 16/8; in assay [3] (strain HUMC5), 32/16; in assay [5] (strain HUMC6), 32/16; in assay [6] (strain HUMC12), 32/16.

As for Colistin, the “Antibacterial Minimum Inhibitory Concentrations” value in assay [1] (strain HUMC4), in assay [2] (strain HUMC1), in assay [3] (strain HUMC5), in assay [4], in assay [5] (strain HUMC6) and in assay [6] (strain HUMC12) was 2 µg/mL throughout.

With Gentamicin, the “Antibacterial Minimum Inhibitory Concentrations” value in assay [1] (strain HUMC4) is over 128 µg/mL; in assay [2] (strain HUMC1), over 128 µg/mL; in assay [3] (strain HUMC5), over 128 µg/mL; in assay [4], 8 µg/mL; in assay [5] (strain HUMC6), over 128 µg/mL; in assay [6] (strain HUMC12), over 128 µg/mL.

As to Pipercillin/tazobactam, the “Antibacterial Minimum Inhibitory Concentrations” value in assay [1] (strain HUMC4), in assay [2] (strain HUMC1), in assay [3] (strain HUMC5), in assay [5] (strain HUMC6) and in assay [6] (strain HUMC12) was <128/4 in each case.

These data come from patent US8747846B2, “Compositions and methods for immunization against drug resistant Acinetobacter baumannii” (priority 2011, dated 2014).
